The subject of assay [1] is aged rat ED model (老年性大鼠ED模型). Description: Test example 2: apomorphine-induced erection and electrically evoked erection in aged rats. The class given is in vivo, SD rat. As to conditions: alprostadil alone, intracavernosal, 14 days.
The test system of assay [2] is vascular ED rabbit model (血管性ED家兔模型). Description: Test example 1: mating test in vascular ED rabbits. The class given is in vivo, New Zealand white rabbit. Particulars: alprostadil alone, intracavernosal; for sexual activity parameters overall vs model group: once daily 1 week.
The subject of assay [3] is neurogenic ED rat model (神经性ED大鼠模型). Description: Test example 3: mating behaviour in rats with cavernous nerve injury. As to conditions: alprostadil alone, intracavernosal, 14 days. The class given is in vivo, SD rat.
A further assay relates to ED patient (ED). In words: Clinical observation 1: ED patient, hypertension. The class given is in vivo, human. Particulars: oral sildenafil 3 months, before the combination.
Assay [4] deals with patient with erectile dysfunction (勃起功能障碍). Description: Clinical observation 2: patient with erectile dysfunction and premature ejaculation. The class given is in vivo, human. As to conditions: oral sildenafil 3 months, before the combination.

As to `CCCCC[C@H](O)/C=C/[C@H]1[C@H](O)CC(=O)[C@@H]1CCCCCCC(=O)O` [前列地尔, (1R,2R,3R)-3-羟基2-[(E)-(3S)-3-羟基-1-辛烯基]-5-氧代环戊烷庚酸], the “sexual activity parameters overall vs model group” value in assay [1] (high dose 10μg/kg) is reported as “总体优于模型组”; in assay [1] (low dose, printed 0.02μg/kg), “总体优于模型组”; in assay [2] (high dose 5μg/kg), “总体优于模型组”; in assay [2] (low dose 0.05μg/kg) it was “总体优于模型组”; in assay [3] (high dose 10μg/kg), “总体优于模型组”; in assay [3] (low dose 0.1μg/kg), “总体优于模型组”. The “observed parameters vs control group” value in assay [2] (high dose 5μg/kg) is recorded as “趋向于对照组”.
Turning to `CCCc1nn(C)c2c(=O)[nH]c(-c3cc(S(=O)(=O)N4CCN(C)CC4)ccc3OCC)nc12` [西地那非], the “attempted intercourse with sufficient sexual stimulation” value in the assay with ED patient (ED) is “尝试性交失败”. Further, in the assay on ED patient (ED) (baseline 4), the “IIEF-5 score after sildenafil” value is given as 5. Moreover, in assay [4], the intercourse satisfaction entry is reported as “未得到提高” and the overall satisfaction entry is “略有下降”. For the same compound, in assay [4] (baseline 12), the “IIEF-5 score after sildenafil” value was found to be 12.

(Values after patent CN110693875A, “一种预防或治疗性功能障碍的药物组合物及其用途” (Chengdu Baiyu Pharmaceutical Co Ltd, priority 2018, dated 2020).)
